From ChEMBL document CHEMBL3875159, “High-affinity small molecular blockers of mixed lineage leukemia 1 (MLL1)-WDR5 interaction inhibit MLL1 complex H3K4 methyltransferase activity” (Eur J Med Chem, 2016)

Key:
[1] = target: WD repeat-containing protein 5 (Homo sapiens, UniProt P61964); test: Inhibition of 10mer-Thr-FAM probe binding to human WDR5 after 2 hrs by fluorescence polarization assay
[2] = Antiproliferative activity against human MV4-11 cells harboring MLL-AF4 fusion protein after 72 hrs by CCK8 assay; type: functional, cell-based; details: MV4-11, 72 h

Row | SMILES | IC50 [1] [µM] | IC50 [2] [µM]
1 | CC(=O)Nc1ccc(-c2ccc(N3CCN(C)CC3)c(NC(=O)c3cc(N)c(F)c(C)c3Cl)c2)cc1 | 0.0701 | 12.5
2 | Cc1c(F)ccc(C(=O)Nc2cc([N+](=O)[O-])ccc2NCCN2CCCC2)c1Cl | > 20 | –
3 | Cc1c(F)ccc(C(=O)Nc2cc([N+](=O)[O-])ccc2N2CCN(c3ccc(F)cc3)CC2)c1Cl | > 20 | –
4 | CN1CCN(c2ccc(-c3ccncc3)cc2NC(=O)c2ccc(F)c([N+](=O)[O-])c2)CC1 | 0.198 | –
5 | CC(=O)Nc1cc(C(=O)Nc2cc(-c3ccc([N+](=O)[O-])cc3)ccc2N2CCN(C)CC2)c(Cl)c(C)c1F | > 20 | –
6 | Cc1c(F)c(N)cc(C(=O)Nc2cc(-c3ccc(NC(=O)CN)cc3)ccc2N2CCN(C)CC2)c1Cl | 0.0625 | 13.2
7 | CN1CCN(c2ccc(-c3ccc([N+](=O)[O-])cc3)cc2NC(=O)c2cccc([N+](=O)[O-])c2)CC1 | 0.285 | –
8 | Cc1c(F)c(N)cc(C(=O)Nc2cc(-c3ccc(NC(=O)C(C)C)cc3)ccc2N2CCN(C)CC2)c1Cl | 0.0956 | 4.5
9 | COC(=O)c1ccc(-c2ccc(N3CCN(C)CC3)c(NC(=O)c3cc([N+](=O)[O-])c(F)c(C)c3Cl)c2)cc1 | 0.0925 | –
10 | Cc1c(F)c(N)cc(C(=O)Nc2cc(-c3ccc(NC(=O)C4CC4)cc3)ccc2N2CCN(C)CC2)c1Cl | 0.0758 | 4.8
11 | Cc1c(F)c(N)cc(C(=O)Nc2cc(-c3ccc(NC(=O)C4CCCCC4)cc3)ccc2N2CCN(C)CC2)c1Cl | 0.341 | 3.8
12 | Cc1c(F)c(N)cc(C(=O)Nc2cc(-c3ccc(NC(=O)CCNC(=O)OC(C)(C)C)cc3)ccc2N2CCN(C)CC2)c1Cl | 0.102 | 4.6
13 | CC(=O)Nc1cc(C(=O)Nc2cc(-c3ccc(N)cc3)ccc2N2CCN(C)CC2)c(Cl)c(C)c1F | 3.19 | –
14 | Cc1c(F)c(N)cc(C(=O)Nc2cc(-c3ccc(NC(=O)CC(C)C)cc3)ccc2N2CCN(C)CC2)c1Cl | 0.105 | 3.9
15 | Cc1c(F)c(N)cc(C(=O)Nc2cc(-c3ccc(NC(=O)C(C)NC(=O)OC(C)(C)C)cc3)ccc2N2CCN(C)CC2)c1Cl (stereo not drawn) | 0.0779 | 4.3
16 | Cc1c(F)c(N)cc(C(=O)Nc2cc(-c3ccc(NC(=O)c4ccccc4)cc3)ccc2N2CCN(C)CC2)c1Cl | 0.422 | 5.4
17 | Cc1c(F)c(N)cc(C(=O)Nc2cc(-c3ccncc3)ccc2N2CCN(C)CC2)c1Cl | 0.0182 | –
18 | CN1CCN(c2ccc(-c3ccncc3)cc2NC(=O)c2ccc(F)c(N)c2)CC1 | 5.8 | –
19 | CN1CCN(c2ccc(-c3ccc(N)cc3)cc2NC(=O)c2cccc(N)c2)CC1 | > 20 | –
